The results in this text go back to PubChem BioAssay (NCI).

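1) Cells in 96-well plates. 2) Compound, 48 h, 5 concentrations. 3) Linear interpolation between surrounding doses. 4) Unreached endpoint = highest concentration. Here, GI50 denotes the concentration required for 50% inhibition of growth. Definition used: TGI = concentration required for complete inhibition of growth.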

Test systems include COLO 205 colon; HS 578T breast; KM12 colon; MOLT-4 leukemia; NCI-H460 lung; RPMI-8226 leukemia; SK-MEL-5 melanoma; SNB-75 CNS; SW-620 colon; U251 CNS.
What all share (experiment): inhibition of tumour cell growth, NCI panel, 48 h

`COc1ccc(-c2cn3c(n2)sc2cc(C)ccc23)cc1`: the TGI is 19.6 µM with COLO 205 colon; 67.5 µM in the experiment on HS 578T breast; greater than 100 µM in the experiment on KM12 colon; greater than 100 µM in the experiment on MOLT-4 leukemia; greater than 100 µM in the experiment with NCI-H460 lung; greater than 100 µM in the experiment on RPMI-8226 leukemia. Further, the TGI was 14.3 µM with SK-MEL-5 melanoma, 37.3 µM in the experiment with SNB-75 CNS, greater than 100 µM in the experiment with SW-620 colon and 21.8 µM in the experiment on U251 CNS.
Turning to `CC(=O)Oc1ccc2c(c1)CC[C@@H]1C2[C@@H](O[N+](=O)[O-])C[C@@]2(C)C1CC[C@@H]2O` (stereo not given in full), the TGI in the experiment on COLO 205 colon is greater than 88.7 µM; in the experiment on HS 578T breast it was 51.1 µM; in the experiment on KM12 colon, greater than 100 µM; in the experiment on MOLT-4 leukemia, greater than 85.8 µM; in the experiment with NCI-H460 lung, greater than 89.1 µM; in the experiment on RPMI-8226 leukemia, 69.7 µM. Further, the TGI in the experiment on SK-MEL-5 melanoma was greater than 100 µM; in the experiment with SNB-75 CNS, greater than 85.2 µM; in the experiment on SW-620 colon, greater than 100 µM; in the experiment on U251 CNS, greater than 100 µM.
Regarding `COc1cc2[nH]c(-c3ccccc3)cc(=O)c2cc1OC`, the TGI in the experiment with COLO 205 colon is greater than 33.3 µM; in the experiment on HS 578T breast it was greater than 100 µM; in the experiment on KM12 colon, greater than 74.9 µM; with MOLT-4 leukemia, greater than 100 µM; in the experiment with NCI-H460 lung, greater than 66.6 µM; in the experiment on RPMI-8226 leukemia it was greater than 100 µM. For the same molecule, the TGI is 54.4 µM in the experiment with SK-MEL-5 melanoma, greater than 87.1 µM with SNB-75 CNS, greater than 100 µM with SW-620 colon and greater than 100 µM with U251 CNS.
In the case of `NC1CCC(c2cc3ccccc3s2)(N2CCCCC2)CC1` (stereo not given), the TGI with COLO 205 colon came out at 3.19 µM; with HS 578T breast it was 20.5 µM; in the experiment on KM12 colon it was 3.78 µM; in the experiment on MOLT-4 leukemia it was 3.25 µM; in the experiment with NCI-H460 lung, 3.06 µM; in the experiment on RPMI-8226 leukemia, 2.28 µM. In addition, the TGI is 4.16 µM with SK-MEL-5 melanoma, 25.2 µM in the experiment with SNB-75 CNS, 3.2 µM in the experiment with SW-620 colon and 3.05 µM in the experiment on U251 CNS.
In the case of `NNC(=O)c1ccccc1NC(=O)/C(=C/c1ccccc1)NC(=O)c1ccccc1`, the TGI in the experiment on COLO 205 colon, in the experiment with HS 578T breast, in the experiment on KM12 colon, in the experiment with MOLT-4 leukemia, in the experiment with NCI-H460 lung and in the experiment with RPMI-8226 leukemia was greater than 100 µM throughout. Further, the TGI in the experiment on SK-MEL-5 melanoma, with SNB-75 CNS, in the experiment on SW-620 colon and in the experiment with U251 CNS was greater than 100 µM each time.
As for `CC1CC[C@]2(C(=O)O)CCC3(C)C(=C2[C@H]1C)C=CC1[C@@]2(C)CC[C@H](O)C(C)(C)C2CC[C@]13C` (stereo not given in full), the TGI in the experiment with COLO 205 colon, with HS 578T breast, in the experiment on KM12 colon, with MOLT-4 leukemia, in the experiment with NCI-H460 lung and with RPMI-8226 leukemia was greater than 100 µM each time. The TGI is 56.6 µM in the experiment with SK-MEL-5 melanoma, 73.1 µM with SNB-75 CNS, greater than 100 µM with SW-620 colon and 97.7 µM in the experiment with U251 CNS.
Turning to `COC1CCC(OC2CC(C3(C)CCC4(CC(O)C(C)C(C(C)/C=C(\C)C(=O)C(C)CC(C)C(=O)O)O4)O3)OC3(OC(C4OC(O)(CO)C(C)CC4C)CC3C)C2C)OC1C` (stereo not given), the TGI with COLO 205 colon was 0.175 µM; with HS 578T breast, 1.15 µM; with KM12 colon, 1.31 µM; in the experiment with MOLT-4 leukemia, 0.339 µM; in the experiment on NCI-H460 lung, 1.6 µM; in the experiment with RPMI-8226 leukemia, less than 0.0386 µM. For the same molecule, the TGI in the experiment with SK-MEL-5 melanoma amounted to 0.464 µM; in the experiment on SNB-75 CNS, 0.568 µM; in the experiment with SW-620 colon, 1.88 µM; with U251 CNS it was 0.817 µM.
With `CC1=Nn2c(nc3sc4c(c3c2=O)CCCC4)SC1`, the TGI in the experiment with COLO 205 colon is greater than 100 µM; in the experiment on HS 578T breast, greater than 100 µM; in the experiment with KM12 colon, greater than 100 µM; with MOLT-4 leukemia, greater than 94.6 µM; in the experiment on NCI-H460 lung it was greater than 100 µM; with RPMI-8226 leukemia it was greater than 100 µM. Moreover, the TGI in the experiment on SK-MEL-5 melanoma, in the experiment on SNB-75 CNS, in the experiment on SW-620 colon and in the experiment with U251 CNS was greater than 100 µM each time.
As to `COc1cc(C2c3cc4c(cc3OC(N3CCOCC3)C2C)OCO4)cc(OC)c1O` (stereo not given), the TGI was 41.9 µM with COLO 205 colon; 25.6 µM with HS 578T breast; greater than 100 µM with KM12 colon; greater than 100 µM in the experiment on MOLT-4 leukemia; greater than 100 µM with NCI-H460 lung; greater than 100 µM in the experiment with RPMI-8226 leukemia. The TGI in the experiment on SK-MEL-5 melanoma was 17.5 µM; with SNB-75 CNS, 7.64 µM; with SW-620 colon it was greater than 59.6 µM; in the experiment on U251 CNS, greater than 53.6 µM.
`C=C(Br)CN(C#N)CC(=C)Br`: the TGI in the experiment on COLO 205 colon, in the experiment on HS 578T breast, in the experiment with KM12 colon, in the experiment with MOLT-4 leukemia, with NCI-H460 lung and in the experiment with RPMI-8226 leukemia was greater than 100 µM throughout. The TGI in the experiment with SK-MEL-5 melanoma, with SNB-75 CNS, in the experiment on SW-620 colon and in the experiment with U251 CNS was greater than 100 µM each time.
As to `COC(=O)C(Cc1ccccc1)NC(=O)CNC(=O)CSc1nnc(COc2ccc(Cl)cc2)n1-c1ccccc1` (stereo not given), the TGI with COLO 205 colon was 31.9 µM; in the experiment with HS 578T breast, 70.4 µM; in the experiment on KM12 colon, 35.2 µM; with MOLT-4 leukemia it was greater than 24.2 µM; with NCI-H460 lung it was 32.2 µM; in the experiment with RPMI-8226 leukemia, 21.8 µM. For the same molecule, the TGI with SK-MEL-5 melanoma came to 29.8 µM; in the experiment on SNB-75 CNS, 37.1 µM; in the experiment with SW-620 colon, 47 µM; in the experiment with U251 CNS it was 32.8 µM.
In the case of `COc1ccc(-c2cn3ccnc3c(-c3ccc4ncn(C5CCCCC5)c4c3)n2)cc1`, the GI50 was 2.22 µM in the experiment with COLO 205 colon; 1.16 µM in the experiment on HS 578T breast; 1.35 µM with KM12 colon; 2.66 µM in the experiment with MOLT-4 leukemia; 0.622 µM in the experiment with NCI-H460 lung; 2.96 µM in the experiment with RPMI-8226 leukemia. In addition, the GI50 is 0.698 µM in the experiment with SK-MEL-5 melanoma, 0.733 µM in the experiment on SNB-75 CNS, 0.734 µM in the experiment on SW-620 colon and 2.22 µM in the experiment on U251 CNS. Further, the TGI in the experiment on COLO 205 colon was 14.4 µM; with HS 578T breast it was 49.3 µM; in the experiment on KM12 colon, greater than 100 µM; with MOLT-4 leukemia it was greater than 100 µM; with NCI-H460 lung, greater than 100 µM; in the experiment on RPMI-8226 leukemia it was greater than 100 µM. The TGI in the experiment with SK-MEL-5 melanoma was 3.2 µM; with SNB-75 CNS, greater than 100 µM; in the experiment on SW-620 colon it was greater than 100 µM; with U251 CNS it was greater than 100 µM.
`COc1cccc(C2c3cc4c(cc3OC(N3CCOCC3)C2C)OCO4)c1O` (stereo not given): the TGI with COLO 205 colon came out at 22.7 µM; with HS 578T breast, 6.39 µM; with KM12 colon, 46.9 µM; in the experiment with MOLT-4 leukemia, 42.2 µM; with NCI-H460 lung, 20.4 µM; in the experiment on RPMI-8226 leukemia, 19.8 µM. Moreover, the TGI was 18.4 µM in the experiment with SK-MEL-5 melanoma, greater than 100 µM in the experiment on SNB-75 CNS, greater than 75.2 µM in the experiment with SW-620 colon and 12.7 µM with U251 CNS.
As to `COC(=O)c1c(O)ccc2c1c1c(n2C)C(=O)c2ccccc2C1=O`, the TGI in the experiment on COLO 205 colon is greater than 100 µM; with HS 578T breast it was 42.2 µM; with KM12 colon it was greater than 100 µM; in the experiment on MOLT-4 leukemia it was 22.8 µM; with NCI-H460 lung, greater than 100 µM; in the experiment with RPMI-8226 leukemia, 64.8 µM. In addition, the TGI in the experiment with SK-MEL-5 melanoma was greater than 100 µM; with SNB-75 CNS it was 15 µM; in the experiment on SW-620 colon it was greater than 100 µM; in the experiment with U251 CNS it was 67.5 µM.
As for `CCN(CC)CCNc1ccc(N=Nc2ccc(S(N)(=O)=O)cc2)c2ccccc12`, the TGI was greater than 100 µM in the experiment on COLO 205 colon; 55.9 µM in the experiment with HS 578T breast; 39 µM in the experiment on KM12 colon; 25.6 µM with MOLT-4 leukemia; greater than 100 µM in the experiment with NCI-H460 lung; 18.7 µM in the experiment on RPMI-8226 leukemia. The TGI was 20.3 µM in the experiment with SK-MEL-5 melanoma, 27 µM in the experiment on SNB-75 CNS, 14.6 µM in the experiment on SW-620 colon and greater than 100 µM in the experiment on U251 CNS.
